From the supplement of paper PMC11061612 come the findings set out here.

Holding throughout (assay): combination Emax (second highest fraction inhibited in the dose matrix, 72 h); higher = more inhibition; extreme values may be limits of the assay
One test relates to ACHN (Kidney Carcinoma). Put shortly:
(§1)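 Bliss excess equals the observed combination effect minus the expected value EA + EB − EA·EB, where EA and EB are the effects of each agent alone. Combination Emax is the second-highest inhibition within the matrix. Inhibition was scaled from CellTiter-Glo 2.0 luminescence, with 0 set by vehicle wells and 1 by blank wells, after 72 hours of two-drug dosing of cells plated in 1536-well plates.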

Test [1] deals with BT-549 (Breast Carcinoma). The essentials: as §1
Test [2] relates to C-4-I (Cervical Carcinoma). The essentials:
as §1

The subject of test [3] is Ca9-22 (Head and Neck Carcinoma). The essentials: as §1
The next test concerns D-263MG (Glioblastoma). Put shortly:
as §1

For test [4], the system named is EFM-19 (Breast Carcinoma). The essentials:
as §1

Test [5] has as its system HOP-62 (Lung Adenocarcinoma). The essentials:
as §1

Test [6] relates to Hs-766T (Pancreatic Carcinoma). Put shortly:
as §1

In test [7] the test system is KYSE-450 (Esophageal Squamous Cell Carcinoma). Put shortly:
as §1

Test [8] deals with MIA-PaCa-2 (Pancreatic Carcinoma). The essentials: as §1
In another test the test system is NB69 (Neuroblastoma). The essentials:
as §1

In test [9] the test system is NCI-H727 (Other Solid Carcinomas). Put shortly: as §1
Test [10] concerns NEC8 (Other Solid Carcinomas). Put shortly:
as §1

Test [11] deals with OSC-20 (Oral Cavity Carcinoma). The essentials:
as §1

Test [12] deals with PANC-04-03 (Pancreatic Carcinoma). Put shortly: as §1
Test [13] deals with RF-48 (B-Cell Non-Hodgkin's Lymphoma). The essentials:
as §1

Test [14] concerns SU8686 (Pancreatic Carcinoma). The essentials: as §1
The next test deals with TGW (Neuroblastoma). The essentials: as §1
Another test concerns UACC-62 (Melanoma). The essentials: as §1
Test [15] concerns VA-ES-BJ (Other Solid Carcinomas). The essentials: as §1

On to `NC1(C(=O)N[C@@H](CCO)c2ccc(Cl)cc2)CCN(c2ncnc3[nH]ccc23)CC1` [Capivasertib] + CC(C)n1c(=O)n(C)c2cnc3cc(F)c(-c4ccc(OCCCN5CCCCC5)nc4)cc3c21 [AZD1390] (first compound max 10 µM, 7x7, partner max 0.3 µM), for which the “combination Emax” value in the test on ACHN (Kidney Carcinoma) amounted to 0.185; in test [1], 0.353; in test [2], 0.237; in test [3], 0.286; in the test with D-263MG (Glioblastoma), 0.249; in test [4], 0.469. For the same compound, the “combination Emax” value in test [5] amounted to 0.374; in [6], 0.209; in test [7], 0.306; in [8] it was 0.188; in the test on NB69 (Neuroblastoma), 0.341; in test [9], 0.35. The “combination Emax” value is 0.144 in test [10]; 0.256 in test [11]; 0.318 in test [12]; 0.44 in [13]; 0.113 in [14]; 0.172 in the test on TGW (Neuroblastoma). The “combination Emax” value was 0.572 in the test with UACC-62 (Melanoma) and 0.307 in test [15].

On to `NC1(C(=O)N[C@@H](CCO)c2ccc(Cl)cc2)CCN(c2ncnc3[nH]ccc23)CC1` [Capivasertib] + CCN(CCO)CCCOc1ccc2c(Nc3cc(CC(=O)Nc4cccc(F)c4)[nH]n3)ncnc2c1 [AZD2811] (first compound max 10 µM, 7x7, partner max 1 µM), for which the “combination Emax” value with ACHN (Kidney Carcinoma) is 0.355; in test [1] it was 0.435; in test [2] it was 0.402; in [3], 0.445; in the test with D-263MG (Glioblastoma), 0.455; in [4], 0.586. Moreover, the “combination Emax” value was found to be 0.483 in test [5]; 0.23 in test [6]; 0.414 in [7]; 0.418 in [8]; 0.679 in the test on NB69 (Neuroblastoma); 0.418 in test [9]. Further, the “combination Emax” value in test [10] was determined as 0.199; in test [11], 0.387; in [12] it was 0.305; in test [13] it was 0.534; in test [14], 0.121; in the test with TGW (Neuroblastoma), 0.273. For the same compound, the “combination Emax” value in the test with UACC-62 (Melanoma) was found to be 0.556; in [15] it was 0.49.

In the case of `NC1(C(=O)N[C@@H](CCO)c2ccc(Cl)cc2)CCN(c2ncnc3[nH]ccc23)CC1` [Capivasertib] + COc1nnc2ccc(N3CCC(c4ccc(OCCN5CCN(C)C(=O)[C@H]5C)cc4)CC3)nn12 [AZD5153] (first compound max 10 µM, 7x7, partner max 1 µM), the “combination Emax” value in the test with ACHN (Kidney Carcinoma) was 0.672; in test [1] it was 0.602; in [2], 0.749; in test [3] it was 0.799; in the test with D-263MG (Glioblastoma) it was 0.562; in [4], 0.538. In addition, the “combination Emax” value in [5] worked out at 0.648; in [6], 0.457; in [7], 0.324; in [8], 0.813; in the test on NB69 (Neuroblastoma), 0.91; in test [9], 0.434. The “combination Emax” value in test [10] turned out to be 0.951; in [11] it was 0.296; in [12] it was 0.495; in test [13] it was 0.474; in test [14], 0.0398; in the test on TGW (Neuroblastoma) it was 0.867. Also, the “combination Emax” value in the test on UACC-62 (Melanoma) was 0.56; in [15] it was 0.487.

Regarding `NC1(C(=O)N[C@@H](CCO)c2ccc(Cl)cc2)CCN(c2ncnc3[nH]ccc23)CC1` [Capivasertib] + C[C@@H]1COCCN1C2=NC(=NC(=C2)C3(CC3)[S@](=N)(=O)C)C4=C5C=CNC5=NC=C4 [AZD6738] (first compound max 10 µM, 7x7, partner max 10 µM), the “combination Emax” value in the test on ACHN (Kidney Carcinoma) was 0.856; in test [1], 0.511; in test [2] it was 0.913; in test [3], 0.872; with D-263MG (Glioblastoma), 0.442; in [4], 0.526. Further, the “combination Emax” value in test [5] worked out at 0.652; in test [6] it was 0.437; in test [7], 0.452; in [8] it was 0.542; in the test with NB69 (Neuroblastoma), 0.849; in [9], 0.58. Moreover, the “combination Emax” value in test [10] was determined as 0.799; in [11], 0.431; in [12] it was 0.575; in [13] it was 0.627; in test [14], 0.166; in the test with TGW (Neuroblastoma), 0.614. Besides, the entries for the “combination Emax” value (in the test with UACC-62 (Melanoma); in test [15]) were 0.568 and 0.729, respectively.

As for `NC1(C(=O)N[C@@H](CCO)c2ccc(Cl)cc2)CCN(c2ncnc3[nH]ccc23)CC1` [Capivasertib] + Cn1cnc2c(F)c(Nc3ccc(Br)cc3Cl)c(C(=O)NOCCO)cc21 [Selumetinib] (first compound max 10 µM, 7x7, partner max 10 µM), the “combination Emax” value with ACHN (Kidney Carcinoma) was 0.49; in test [1], 0.41; in test [2], 0.537; in test [3], 0.554; in the test with D-263MG (Glioblastoma), 0.518; in test [4], 0.477. Also, the “combination Emax” value was 0.644 in test [5]; 0.591 in test [6]; 0.547 in [7]; 0.643 in test [8]; 0.903 in the test on NB69 (Neuroblastoma); 0.729 in [9]. Also, the “combination Emax” value in test [10] is 0.152; in test [11], 0.451; in [12], 0.576; in test [13], 0.456; in [14] it was 0.26; in the test on TGW (Neuroblastoma), 0.262. Besides, the “combination Emax” value in the test with UACC-62 (Melanoma) was found to be 0.908; in [15], 0.347.

For `COc1cccc2c1C(=O)c1c(O)c3c(c(O)c1C2=O)C[C@@](O)(C(=O)CO)C[C@@H]3O[C@H]1C[C@H](N)[C@H](O)[C@H](C)O1` [Doxorubicin] + Cc1cc2ncnn2cc1Nc1ncc2c(n1)n(C1CCOCC1)c(=O)n2C [AZD7648] (first compound max 1 µM, 7x7, partner max 10 µM), the “combination Emax” value was 0.913 with ACHN (Kidney Carcinoma); 0.441 in test [1]; 0.971 in test [2]; 0.831 in test [3]; 0.789 in the test with D-263MG (Glioblastoma); 0.437 in test [4]. Further, the “combination Emax” value came out at 0.619 in [5]; 0.43 in test [6]; 0.801 in test [7]; 0.949 in test [8]; 0.91 in the test on NB69 (Neuroblastoma); 0.147 in [9]. For the same compound, the “combination Emax” value is 0.973 in test [10]; 0.563 in [11]; 0.278 in test [12]; 0.836 in test [13]; 0.203 in [14]; 0.497 with TGW (Neuroblastoma). Moreover, the “combination Emax” value with UACC-62 (Melanoma) was determined as 0.935; in [15] it was 0.758.
